# Data reported in patent US20060014709A1, “Drug or cosmetic” (priority 2002, published 2006).
# Several values for one entry are separate records, joined by “and”; a condition that tells them apart may be missing. Identical values can stand only once. Entries after “also recorded” stand apart in the source; their conditions may differ. Marks after values point to notes of the source that are not given here.
# Columns and labels:
# Format in all cases: in vivo
# [1] = tested on: male SD rats, obstruction-released kidney (glomerular lesions and tubulointerstitial lesions); test: Obstruction release model after complete obstruction of unilateral ureter for 14 days (Example 2-1); parameters: key to Tubulointerstitial lesions: level of lesions (quality): summed lesion score: + = 1, ++ = 2, +++ = 3 points; conditions: rat
# Excerpt: (§1) That is, the rat was laparotomized under anesthesia with ether and left ureter was ligated with 7-0 Nylon at the height of the margin of lower pole of kidney to close the abdomen. On the 14th day after obstruction, the obstruction was released and urinary passage was reconstructed using a cuff. Thus, after 14 days, the part of ligated obstructed ureter was resected, a polyethylene tube of 25 gages (manufactured by Nippon Sherwood) was used as a cuff and inserted into and retained at the lumen from the cut end of the lower normal ureter, then the cuff was also retained in the expanded upper ureter and each of them was ligated and fixed by 7-0 Nylon to reconstruct the urinary passage. At the same time, the right kidney at the opposite side was excised. After the release of the obstruction, body weight was measured, blood was drawn on the 2nd day, 5th day and 7th day from the release to measure serum creatinine, then the rat was killed under anesthesia and the left obstruction-released kidney was excised.
# With regard to the excised kidney, there were carried out measurements of weight of the kidney, creatinine concentration mg/dl in plasma as an indicator of kidney function and pathological test for the kidney, and also leukocyte cells which infiltrate the obstruction-released kidney were immunopathologically studied with cell surface markers for ED1 macrophages, CD11b (ED8) positive macrophages and CD5 positive lymphocytes. A number of positive cells was expressed as a number of cells per glomerulus from measured numbers of positive cells in five glomeruli, and for a number in tubulointerstitial tissue, it was expressed by the total number of cells existing in five fields of 200×magnification. For macrophages, a number of CD11b positive cells existing in glomerulus was considered as a number of CD11b^+CD2^+ macrophages and a case of existing not less than one positive cell per glomerulus was considered as positive (+). In the tubulointerstitial tissue, a number of […] 60 CD11b positive cells was considered as positive (+), or a case of CD11b^−CD2^+ macrophages dominantly increasing. Scoring of evaluation of tubulointerstitial lesions was as follows: + gets 1-point as a light lesion; ++ gets 2-point as a moderate lesion; and +++ gets3-point as a severe lesion. For glomerular lesions, when a proportion of lesioned glomeruli was decreased to not more than 40%, and for tubulointerstitial lesions, when a score of the lesions was not more than 4, it was considered as improved.
# For glomerular lesions, by counting glomeruli causing thickening of Bowman's capsule wall and glomerular hyalinosis, a proportion of glomeruli having lesions was calculated. For tubulointerstitial lesions, by qualifying hyperplasia of tubular basement membrane and interstitial fibrosis, levels of the lesions were represented.
# (§2) An in vivo biological test was carried out for the γ-lactone derivative according to the present invention using this model. Bulk powder of a test compound was dissolved in sterile physiological saline together with gum arabic, and concentrations of the test compound and gum arabic were adjusted to 30 mg/mL and 5% respectively. The preparation was administered orally or subcutaneously injected at the dose of 30 mg/kg or 3 mg/kg every day. The administration was conducted for the total 21 days of the obstructed period for 14 days and after release of the obstruction for 7 days.
# For test groups, a group administered single compound group, a group administered both compound group and a control group administered solution of gum arabic were set up and compared for renal functions and morphological evaluations, as well as numbers of ED1, CD5, CD11b positive cells by means of immunopathology.
# [2] = tested on: male SD rats, obstruction-released kidney (glomerular lesions and tubulointerstitial lesions); test: Obstruction release model after complete obstruction of unilateral ureter for 14 days (Example 2-2); parameters: key to Tubulointerstitial lesions: level of lesions: summed lesion score; + = 1, ++ = 2, +++ = 3; ≤6.5 improved; conditions: rat, 30 mg/kg subcutaneously
# Excerpt: as §1, §2
# For cell surface markers of leukocyte cells which infiltrate the obstruction-released kidney, ED1, CD11b (ED8), CD5 and CD2 were used. […] For CD5^+, a number of not less than 20 per glomerulus was considered as positive. For glomerular lesions, which was characterized by Bowman's capsule wall, glomerular hyalinosis, dilation of urinary space pole and hypertrophy of parietal cells, 50 glomeruli were evaluated to obtain a proportion of pathologic glomeruli. For tubulointerstitial lesions, levels of the lesions were represented by qualifying hyperplasia of tubular basement membrane, tubular enlargement and atrophy and interstitial fibrosis. Scoring was as follows: + gets 1-point as a light lesion; ++ gets 2-point as a moderate lesion; and +++ gets 3-point as a severe lesion. Levels of cell infiltration were evaluated qualitatively according to the above three-point scale. For glomerular lesions, when a proportion of lesioned glomeruli was decreased to not more than 20%, and for tubulointerstitial lesions, when a score of the lesions was not more than 6.5, it was considered as improved.
# Numbers of cells positive for CD11b (ED8), CD2 and CD5 were compared by means of immunopathology, and CD11b^+CD2^+ macrophages were considered as regeneration-promoting macrophages in glomeruli and CD11b^−CD2^+CD5+ macrophages were considered as regeneration-promoting macrophages to tubulointerstitial lesions, and herewith, it was estimated whether each cell group is quantitatively dominant or not.
# [3] = tested on: male SDT rats (spontaneously type II diabetes model), complete skin-excised wounds; test: Complete skin-excised model, wound healing; conditions: SDT rat, 10 mg/kg subcutaneously every day
# Excerpt: Using male SDT rats of 28-30 weeks age, which were a spontaneously type II diabetes model, promoting effect on repair and regeneration in wound healing after complete skin excision were examined according to a partially modified method of Breitbout AS et al. (Ann Plast Surg 1999, 43: 632). That is, an animal was shaved at its back under anesthesia with ether, and skin in 2×2 cm size was excised together with panniculus carnosus in same size to make two complete skin-excised wounds per animal.
# Healings of the wounds were observed on the 1st day, 4th day, 7th day, 12h day, 15th day, 21st day and 28th day from the operation. An area of the wounds was obtained as the product of the average vertical length and the average horizontal length which were measured along with a direction of the longest part in the wound.
# A test compound was dissolved in sterile physiological saline together with gum arabic. Concentrations of the test compound and gum arabic were adjusted to 30 mg/mL and 5% respectively. The preparation was subcutaneously injected at the dose of 10 mg/kg every day. The administration was started on 6 days before the operation and continued to 28 days after the operation.
# [4] = 30 mg/kg subcutaneously every day for 21 days, one value per animal, 30 mg/kg
compound,measurement,setting,value
"C[C@@H](OC(=O)[C@@]1(Oc2ccc(F)cc2)CCC(=O)O1)c1ccc2ccccc2c1 [compound (II-1), (R)-1-naphthalen-2-ylethyl (R)-2-(4-fluorophenoxy)-5-oxotetrahydrofuran-2-carboxylate]",cases with increased regeneration-promoting CD11b^+CD2^+ macrophages to glomerular lesions,[1]; 30 mg/kg subcutaneously,all five cases
same,cases with increased regeneration-promoting CD11b^−CD2^+ macrophages to tubulointerstitial lesions,[1]; 30 mg/kg subcutaneously,four of five cases
same,pathological improvement of glomerular lesions (cases),[1]; 30 mg/kg subcutaneously,four of five cases
same,pathological improvement of tubulointerstitial lesions (cases),[1]; 30 mg/kg subcutaneously,no tubulointerstitial lesion was improved
same,"Regeneration CD11b^+CD2^+ macrophages to glomerular lesions, Determination: increase = +","[1]; 30 mg/kg subcutaneously every day for 21 days, one value per animal",+ (a case of existing not less than one positive cell per glomerulus was considered as positive (+))
same,Coincidence of two regeneration macrophages being positive,[1]; [4],Coincident; also recorded: Not coincident
same,Glomerular lesions: proportion of lesioned glomeruli (%),[1]; [4],10% and 14% and 22% and 57% and 23%
same,Number of regeneration CD11b^+CD2^+ macrophages to glomerular lesions: number of positive cells per glomerulus,[1]; [4],1.2 cells per glomerulus and 1.7 cells per glomerulus and 1.1 cells per glomerulus and 2.8 cells per glomerulus and 2.0 cells per glomerulus
same,Number of regeneration CD11b^−CD2^+ macrophages to tubulointerstitial lesions: number of positive cells (CD11b) in five fields of 200× magnification,[1]; [4],39 cells in five fields of 200× m and 49 cells in five fields of 200× m and 15 cells in five fields of 200× m and 65 cells in five fields of 200× m and 26 cells in five fields of 200× m
same,"Regeneration CD11b^−CD2^+ macrophages to tubulointerstitial lesions, Determination: increase +",[1]; [4],+ (a number of not more than 60 CD11b positive cells was considered as positive (+))
same,Serum creatinine,[1]; [4],2.6 mg/dl and 1.7 mg/dl (2×) and 2.0 mg/dl and 1.8 mg/dl
same,Tubulointerstitial lesions: level of lesions (quality),[1]; [4],7.5 and 9.0 (2×) and 8.0 and 6.5
same,cases in which regeneration-promoting CD11b^+CD2^+ macrophages were predominant in glomeruli,[2],all five cases
same,cases in which regeneration-promoting CD11b^−CD2^+CD5+ macrophages were predominant in tubulointerstitial lesions,[2],negative in tubulointerstitial lesions in all cases
same,pathological improvement of glomerular lesions (cases),[2],only one case
same,pathological improvement of tubulointerstitial lesions (cases),[2],all five cases
same,"Regeneration macrophages to glomerular lesions, Determination Increase +",[2]; one value per animal,+ (a case of existing not less than one positive cell per glomerulus was considered as positive (+))
same,Degree of cell infiltration,"[2]; one value per animal, 30 mg/kg",+++
same,Number of regeneration CD11b^+CD2^+ macrophages to glomerular lesions: number of positive cells per glomerulus CD11b^+CD2^+,"[2]; one value per animal, 30 mg/kg",1.2 cells per glomerulus and 1.7 cells per glomerulus and 1.1 cells per glomerulus and 2.8 cells per glomerulus and 2.0 cells per glomerulus
same,"Number of regeneration CD11b^−CD2^+CD5^+ macrophages to tubulointerstitial lesions: number of positive cells in five fields of 200× magnification, CD5^+","[2]; one value per animal, 30 mg/kg",6 cells in five fields of 200× m and 9 cells in five fields of 200× m and 3 cells in five fields of 200× m (2×) and 4 cells in five fields of 200× m
same,"Number of regeneration CD11b^−CD2^+CD5^+ macrophages to tubulointerstitial lesions: number of positive cells in five fields of 200× magnification, CD11b^+","[2]; one value per animal, 30 mg/kg",39 cells in five fields of 200× m and 49 cells in five fields of 200× m and 15 cells in five fields of 200× m and 65 cells in five fields of 200× m and 26 cells in five fields of 200× m
same,Serum creatinine,"[2]; one value per animal, 30 mg/kg",2.6 mg/dl and 1.7 mg/dl (2×) and 2.0 mg/dl and 1.8 mg/dl
same,Tubulointerstitial lesions: level of lesions,"[2]; one value per animal, 30 mg/kg",8.0 (4×) and 6.0
same,Glomerular lesions: proportion of lesioned glomeruli (%),"[2]; one value per animal, 50 glomeruli evaluated, 30 mg/kg",16% (2×) and 12% (2×) and 8%
same,Excised wound area (cm^2),[3]; 1st day after complete skin excision,3.33 cm^2
same,Excised wound area (cm^2),[3]; 4th day after complete skin excision,2.31 cm^2
same,Excised wound area (cm^2),[3]; 7th day after complete skin excision,1.62 cm^2
same,Excised wound area (cm^2),[3]; 12th day after complete skin excision,0.52** cm^2
same,Excised wound area (cm^2),[3]; 15th day after complete skin excision,0.55 cm^2
same,Excised wound area (cm^2),[3]; 21st day after complete skin excision,0.44 cm^2
same,Crust formation/number of wound,[3]; 21st day after the operation,0/8
same,crust formation on the surface of repaired wounds (in words),[3]; 28th day,no crust formation occurred
same,Excised wound area (cm^2),[3]; 28th day after complete skin excision,0.29 cm^2
same,Crust formation/number of wound,[3]; 28th day after the operation,1/8
same,promoting effect on wound healing (in words),"[3]; versus the control group, 10 mg/kg",significant promoting effect on wound healing at 12th day after the operation; also recorded: promoting effect on healing of epidermis
